Measured values: ChEMBL document CHEMBL5096235, “In Silico Exploration and Biological Evaluation of Bispecific Peptides Derived from Anti-HER2 Antibodies and Peptide-Camptothecin Conjugates for HER2-Positive Breast Cancer” (J Med Chem, 2022)
The source made the active and inactive calls. The rule behind the calls is not given here. Residues, ends and D or L forms follow the SMILES beside them.

Columns and labels:
[1] = Metabolic stability in Sprague-Dawley rat plasma assessed as drug degradation incubated for 120 mins by LC-MS/MS analysis; format: ADME, cell-free; settings: 2 h
[2] = biological target: T1, Receptor tyrosine-protein kinase erbB-2 (Homo sapiens, UniProt P04626); test: Binding affinity to recombinant HER2 (unknown origin) assessed as dissociation constant by SPR analysis
[3] = Metabolic stability in Sprague-Dawley rat plasma assessed as half life incubated for 120 mins by LC-MS/MS analysis; format: ADME, cell-free
[4] = Drug uptake in tumor of nude mouse xenografted with HER2-positive human SK-BR-3 cells assessed as increase in fluorescence intensity at 25 uM, iv measured after 2 hrs by IVIS spectrum in vivo imaging analysis; format: ADME, organism-based, Neoplasm
[5] = Toxicity in nude mouse xenografted with human SK-BR-3 cells assessed as effect on albumin level at 8 micromol/kg, iv administered every 3 days for 14 days; format: organism-based; settings: in vivo, 336 h, dose 8 µmol/kg, time 14 day
[6] = test system: SK-OV-3; test: Cytotoxicity against HER-positive human SK-OV-3 cells assessed as inhibition of cell growth incubated for 48 hrs by MTT assay; format: functional, cell-based; settings: SK-OV-3, 48 h
[7] = Toxicity in nude mouse xenografted with human SK-BR-3 cells assessed as effect on total protein level at 8 micromol/kg, iv administered every 3 days for 14 days; format: organism-based; settings: in vivo, 336 h, dose 8 µmol/kg, time 14 day
[8] = Toxicity in nude mouse xenografted with human SK-BR-3 cells assessed as effect on creatinine level at 8 micromol/kg, iv administered every 3 days for 14 days; format: organism-based; settings: in vivo, 336 h, dose 8 µmol/kg, time 14 day
[9] = Toxicity in nude mouse xenografted with human SK-BR-3 cells assessed as liver damage at 8 micromol/kg, iv administered every 3 days for 14 days by H and E staining based analysis; format: organism-based; settings: in vivo, 336 h, dose 8 µmol/kg, time 14 day
[10] = Toxicity in nude mouse xenografted with human SK-BR-3 cells assessed as effect on globulin level at 8 micromol/kg, iv administered every 3 days for 14 days; format: organism-based; settings: in vivo, 336 h, dose 8 µmol/kg, time 14 day
[11] = Toxicity in nude mouse xenografted with human SK-BR-3 cells assessed as spleen damage at 8 micromol/kg, iv administered every 3 days for 14 days by H and E staining based analysis; format: organism-based; settings: in vivo, 336 h, dose 8 µmol/kg, time 14 day
[12] = Toxicity in nude mouse xenografted with human SK-BR-3 cells assessed as inflammatory cell infiltration at 8 micromol/kg, iv administered every 3 days for 14 days by H and E staining based analysis; format: organism-based; settings: in vivo, 336 h, dose 8 µmol/kg, time 14 day
[13] = test system: SK-BR-3; test: Cytotoxicity against HER-positive human SK-BR-3 cells assessed as inhibition of cell growth incubated for 48 hrs by MTT assay; format: functional, cell-based; settings: SK-BR-3, 48 h
[14] = Toxicity in nude mouse xenografted with human SK-BR-3 cells assessed as heart damage at 8 micromol/kg, iv administered every 3 days for 14 days by H and E staining based analysis; format: organism-based; settings: in vivo, 336 h, dose 8 µmol/kg, time 14 day
[15] = test system: NCI-N87; test: Cytotoxicity against HER-positive human NCI-N87 cells assessed as inhibition of cell growth incubated for 48 hrs by MTT assay; format: functional, cell-based; settings: NCI-N87, 48 h
[16] = test system: SK-BR-3; test: Induction of apoptosis in human SK-BR-3 cells assessed as dead cells incubated for 24 hrs by Annexin V-FITC/PI staining based flow cytometry analysis (Rvb= 1.21%); format: functional
[17] = Toxicity in nude mouse xenografted with human SK-BR-3 cells assessed as cellular necrosis at 8 micromol/kg, iv administered every 3 days for 14 days by H and E staining based analysis; format: organism-based; settings: in vivo, 336 h, dose 8 µmol/kg, time 14 day
[18] = Toxicity in nude mouse xenografted with human SK-BR-3 cells assessed as effect on alkaline phosphatase level at 8 micromol/kg, iv administered every 3 days for 14 days; format: organism-based; settings: in vivo, 336 h, dose 8 µmol/kg, time 14 day
[19] = test system: SK-BR-3; test: Induction of apoptosis in human SK-BR-3 cells assessed as early apoptotic cells incubated for 24 hrs by Annexin V-FITC/PI staining based flow cytometry analysis (Rvb= 4.37%); format: functional
[20] = Cytotoxicity against human MCF-10A cells assessed as inhibition of cell growth incubated for 48 hrs by MTT assay; format: toxicity, cell-based
[21] = Toxicity in nude mouse xenografted with human SK-BR-3 cells assessed as lung damage at 8 micromol/kg, iv administered every 3 days for 14 days by H and E staining based analysis; format: organism-based; settings: in vivo, 336 h, dose 8 µmol/kg, time 14 day
[22] = test system: SK-BR-3; test: Induction of cell cycle arrest in human SK-BR-3 cells assessed as accumulation of cells at S phase incubated for 24 hrs by flow cytometry analysis (reference value: 23%); format: functional
[23] = test system: SK-BR-3; test: Induction of apoptosis in human SK-BR-3 cells assessed as live cells incubated for 24 hrs by Annexin V-FITC/PI staining based flow cytometry analysis (Rvb= 89.4%); format: functional
[24] = test system: SK-BR-3; test: Induction of apoptosis in human SK-BR-3 cells assessed as late apoptotic cells incubated for 24 hrs by Annexin V-FITC/PI staining based flow cytometry analysis (Rvb= 5.02%); format: functional
[25] = test system: MDA-MB-231; test: Cytotoxicity against HER-negative human MDA-MB-231 cells assessed as inhibition of cell growth incubated for 48 hrs by MTT assay; format: functional, cell-based; settings: MDA-MB-231, 48 h
[26] = Toxicity in nude mouse xenografted with human SK-BR-3 cells assessed as kidney damage at 8 micromol/kg, iv administered every 3 days for 14 days by H and E staining based analysis; format: organism-based; settings: in vivo, 336 h, dose 8 µmol/kg, time 14 day
[27] = biological target: T1, Receptor tyrosine-protein kinase erbB-2; test: Binding affinity to HER2 in HER-positive human SK-BR-3 cells assessed as increase in fluorescence intensity at 25 uM by Hoechst 33342 staining based confocal microscopic analysis; format: cell-based

T1 sequence (P04626 whole entry): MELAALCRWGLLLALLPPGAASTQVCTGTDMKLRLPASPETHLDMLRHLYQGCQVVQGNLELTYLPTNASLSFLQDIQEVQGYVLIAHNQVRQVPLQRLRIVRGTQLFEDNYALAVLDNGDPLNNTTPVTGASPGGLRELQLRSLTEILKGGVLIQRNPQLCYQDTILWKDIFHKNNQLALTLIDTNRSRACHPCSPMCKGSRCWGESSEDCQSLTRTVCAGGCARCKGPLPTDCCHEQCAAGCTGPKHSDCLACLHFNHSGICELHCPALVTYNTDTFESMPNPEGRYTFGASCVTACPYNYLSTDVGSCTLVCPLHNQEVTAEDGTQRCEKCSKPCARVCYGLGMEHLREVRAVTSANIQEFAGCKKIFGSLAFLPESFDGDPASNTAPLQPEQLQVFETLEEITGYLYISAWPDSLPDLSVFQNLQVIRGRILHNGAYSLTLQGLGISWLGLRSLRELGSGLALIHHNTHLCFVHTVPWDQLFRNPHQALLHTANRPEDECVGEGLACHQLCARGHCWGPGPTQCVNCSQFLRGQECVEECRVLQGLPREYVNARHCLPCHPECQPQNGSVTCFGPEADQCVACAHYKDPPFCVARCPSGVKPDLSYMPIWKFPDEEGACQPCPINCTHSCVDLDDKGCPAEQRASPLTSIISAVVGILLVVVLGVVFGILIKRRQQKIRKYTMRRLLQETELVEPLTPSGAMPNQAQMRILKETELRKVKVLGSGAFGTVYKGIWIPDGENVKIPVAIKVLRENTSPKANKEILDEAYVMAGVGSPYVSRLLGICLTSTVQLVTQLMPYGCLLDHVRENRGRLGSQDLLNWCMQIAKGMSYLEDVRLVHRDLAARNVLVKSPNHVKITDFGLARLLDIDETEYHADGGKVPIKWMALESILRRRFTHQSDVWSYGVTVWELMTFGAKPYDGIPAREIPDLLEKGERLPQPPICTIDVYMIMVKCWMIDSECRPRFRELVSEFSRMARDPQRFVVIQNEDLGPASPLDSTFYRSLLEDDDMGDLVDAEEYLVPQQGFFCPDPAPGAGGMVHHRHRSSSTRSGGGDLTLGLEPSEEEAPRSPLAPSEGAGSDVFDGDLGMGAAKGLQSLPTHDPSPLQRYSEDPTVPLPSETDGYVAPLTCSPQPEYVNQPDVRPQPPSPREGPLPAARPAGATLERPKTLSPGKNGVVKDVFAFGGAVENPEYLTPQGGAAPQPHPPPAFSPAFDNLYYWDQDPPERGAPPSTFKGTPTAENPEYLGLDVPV

For `CC[C@H](C)[C@H](NC(=O)[C@H](CCCNC(=N)N)NC(=O)CNC(=O)[C@H](CS)NC(=O)CNC(=O)[C@H](CS)NC(=O)CNC(=O)[C@H](CCCCN)NC(=O)[C@H](Cc1ccccc1)NC(=O)[C@H](CCCNC(=N)N)NC(=O)[C@H](CCC(N)=O)NC(=O)[C@H](CC(N)=O)NC(=O)[C@H](Cc1ccc(O)cc1)NC(=O)[C@H](Cc1c[nH]c2ccccc12)NC(=O)[C@H](CO)NC(=O)[C@H](CCCNC(=N)N)NC(=O)CNC(=O)[C@H](Cc1c[nH]c2ccccc12)NC(=O)[C@H](CC(N)=O)NC(=O)[C@@H]1CCCN1C(=O)[C@@H](N)CC(N)=O)C(=O)N[C@@H](CCCCN)C(=O)N1CCC[C@H]1C(=O)N[C@@H](CCCNC(=N)N)C(=O)N[C@@H](CCCCN)C(=O)NCC(=O)N[C@@H](Cc1ccc(O)cc1)C(=O)N[C@H](C(=O)N[C@@H](CCCNC(=N)N)C(=O)O)[C@@H](C)O` (H-NPNWGRSWYNQRFKGCGCGRIKPRKGYTR-OH), the Stability [1] was “Unstable”, the Kd [2] was 385 nM and the half-life [3] was 15 min.
In the case of `CC[C@H](C)[C@H](NC(=O)[C@H](CCCNC(=N)N)NC(=O)CNC(=O)[C@H](CS)NC(=O)CNC(=O)[C@H](CCCCN)NC(=O)[C@H](Cc1ccccc1)NC(=O)[C@H](CCCNC(=N)N)NC(=O)[C@H](CCC(N)=O)NC(=O)[C@H](CC(N)=O)NC(=O)[C@H](Cc1ccc(O)cc1)NC(=O)[C@H](Cc1c[nH]c2ccccc12)NC(=O)[C@H](CO)NC(=O)[C@H](CCCNC(=N)N)NC(=O)CNC(=O)[C@H](Cc1c[nH]c2ccccc12)NC(=O)[C@H](CC(N)=O)NC(=O)[C@@H]1CCCN1C(=O)[C@@H](N)CC(=O)NC(=S)Nc1ccc2c(c1)C(=O)OC21c2ccc(O)cc2Oc2cc(O)ccc21)C(=O)N[C@@H](CCCCN)C(=O)N1CCC[C@H]1C(=O)N[C@@H](CCCNC(=N)N)C(=O)N[C@@H](CCCCN)C(=O)NCC(=O)N[C@@H](Cc1ccc(O)cc1)C(=O)N[C@H](C(=O)N[C@@H](CCCNC(=N)N)C(N)=O)[C@@H](C)O`, the Drug uptake [4] is reported as “Active”.
In the case of `CC[C@@]1(O)C(=O)OCc2c1cc1n(c2=O)Cc2cc3ccccc3nc2-1` [CAMPTOTHECIN], the Activity [5] is reported as “Non-Toxic”, the IC50 [6] is reported as 3820 nM and the Activity [7] is reported as “Non-Toxic”. The Activity [8] was “Non-Toxic”, the Activity [9] was “Non-Toxic” and the Activity [10] was “Non-Toxic”. For the same compound, the Activity [11] was “Non-Toxic”, the Activity [12] was “Non-Toxic” and the IC50 [13] was 210 nM. For the same compound, the Activity [14] was “Non-Toxic”, the IC50 [15] was 2320 nM and the Activity [16] was 0.35%. For the same compound, the Activity [17] was “Non-Toxic”, the Activity [18] was “Non-Toxic” and the Activity [19] was 38.6%. For the same compound, the IC50 at 48 h [20] was 2580 nM, the Activity [21] was “Non-Toxic” and the Activity [22] was 50.8%. The Activity [23] was 48.8%, the Activity [24] was 12.3% and the IC50 [25] was 1060 nM. The Activity [26] was “Non-Toxic”.
For `CC[C@H](C)[C@H](NC(=O)[C@H](CCCNC(=N)N)NC(=O)CNC(=O)[C@H](CS)NC(=O)CNC(=O)[C@H](CCCCN)NC(=O)[C@H](Cc1ccccc1)NC(=O)[C@H](CCCNC(=N)N)NC(=O)[C@H](CCC(N)=O)NC(=O)[C@H](CC(N)=O)NC(=O)[C@H](Cc1ccc(O)cc1)NC(=O)[C@H](Cc1c[nH]c2ccccc12)NC(=O)[C@H](CO)NC(=O)[C@H](CCCNC(=N)N)NC(=O)CNC(=O)[C@H](Cc1c[nH]c2ccccc12)NC(=O)[C@H](CC(N)=O)NC(=O)[C@@H]1CCCN1C(=O)[C@@H](N)CC(=O)NC(=S)Nc1ccc2c(c1)C(=O)OC21c2ccc(O)cc2Oc2cc(O)ccc21)C(=O)N[C@@H](CCCCN)C(=O)N1CCC[C@H]1C(=O)N[C@@H](CCCNC(=N)N)C(=O)N[C@@H](CCCCN)C(=O)NCC(=O)N[C@@H](Cc1ccc(O)cc1)C(=O)N[C@H](C(=O)N[C@@H](CCCNC(=N)N)C(=O)O)[C@@H](C)O` (HELM PEPTIDE1{D.P.N.W.G.R.S.W.Y.N.Q.R.F.K.G.C.G.R.I.K.P.R.K.G.Y.T.R}|CHEM1{[O=C1OC2(c3ccc(O)cc3Oc3cc(O)ccc32)c2ccc(NC(=S)N[*:1])cc21]}$PEPTIDE1,CHEM1,1:R3-1:R1$$$V2.0), the Activity [27] was “Active” and the Drug uptake [4] was “Active”.
